Experimental data reported in patent US20240182531A1, “KV1.3 Blockers” (priority 2021, published 2024).
Where a SMILES comes first, the peptide text is derived from it. Bridges are numbered along the chain shown (N, C = ends). [ ]: non-standard residue; d: D form. Nle = CCCC[C@H](N)C(=O)O; Orn = NCCC[C@H](N)C(=O)O; Dab = NCC[C@H](N)C(=O)O; Dap = NC[C@H](N)C(=O)O

Experiments:
[1] = target: T1, human Kv1.2 (Homo sapiens, UniProt P16389); assay: cell-based; conditions: ratio of patch clamp IC50 values
T1 construct: expressed in transfected cells; host or cells: CHO

[2] = system: KLH ear inflammation model in rats; assay type: in vivo, rat; conditions: 100 nmol/kg SC 24 hrs prior to KLH ear challenge; +/− SD
[3] = target: T2, human Kv1.1 (Homo sapiens, UniProt Q09470); assay: cell-based; conditions: ratio of patch clamp IC50 values
T2 construct: expressed in transfected cells; host or cells: CHO

[4] = target: T3, human Kv1.6 (Homo sapiens, UniProt P17658); assay: cell-based; conditions: ratio of patch clamp IC50 values
T3 construct: expressed in transfected cells; host or cells: CHO

[5] = target: Rat whole blood (Rattus norvegicus, UniProt P15384); assay type: cell-based; conditions: IL-17A release, thapsigargin, 24 Hr, at least 2 replicates
[6] = target: T4, human Kv1.3 voltage-gated K+ channel (Homo sapiens, UniProt P22001); assay: Kv1.3 blocker activity in FLIPR thallium assay; assay type: cell-based
T4 construct: host or cells: CHO-DUKX
Experimental: A human Kv1.3 voltage-gated K+ channel cell line was purchased from Perkin Elmer (#TDS-AX-010-C-1). The cell line is based on CHO-DUKX cells stably transfected with the human Kv1.3 voltage-gated K+ channel.
The cell line was grown in MEMα with nucleotides, GlutaMAX (Gibco #32571028), 10% Foetal Bovine Serum (FBS), 0.4 mg/ml Geneticin, 100 units/ml Penicillin, and 100 μg/ml Streptomycin and seeded at 10.000 cells/well in black poly-D-lysine-coated 96 well plates.
The FluxOR™ Potassium Ion Channel Assay (Invitrogen #F10016) was used to quantitate flux of thallium ions into the cells as a response to Kv1.3 activation with a stimulus buffer causes depolarization of the cell membrane, thereby generating a fluorescent signal, proportional to channel activity. The assay was performed as described by the assay kit manufacturer including a compound pre-incubation step (30 min, 37° C., 5% CO2) in assay buffer containing 0.02% W/v casein from bovine milk (Sigma #C4765) prior to cell membrane depolarization using a final stimuli buffer composition corresponding to 0.2× FluxOR™ chloride-free buffer, 5 mM K2SO4, 1 mM Tl2SO4. The fluorescence responses were recorded and quantified (maximum response at 50 s, 37° C.) using the FLIPR® Tetra High Throughput Screening System (Molecular Devices, Inc.).
IC50 can be regarded as a measure of potency of inhibition for the respective compound. The IC50 value is a measure of the concentration of an inhibitor required to achieve half of that compound's maximal inhibition of ion channel activity in a given assay.

T4 sequence (P22001 whole entry): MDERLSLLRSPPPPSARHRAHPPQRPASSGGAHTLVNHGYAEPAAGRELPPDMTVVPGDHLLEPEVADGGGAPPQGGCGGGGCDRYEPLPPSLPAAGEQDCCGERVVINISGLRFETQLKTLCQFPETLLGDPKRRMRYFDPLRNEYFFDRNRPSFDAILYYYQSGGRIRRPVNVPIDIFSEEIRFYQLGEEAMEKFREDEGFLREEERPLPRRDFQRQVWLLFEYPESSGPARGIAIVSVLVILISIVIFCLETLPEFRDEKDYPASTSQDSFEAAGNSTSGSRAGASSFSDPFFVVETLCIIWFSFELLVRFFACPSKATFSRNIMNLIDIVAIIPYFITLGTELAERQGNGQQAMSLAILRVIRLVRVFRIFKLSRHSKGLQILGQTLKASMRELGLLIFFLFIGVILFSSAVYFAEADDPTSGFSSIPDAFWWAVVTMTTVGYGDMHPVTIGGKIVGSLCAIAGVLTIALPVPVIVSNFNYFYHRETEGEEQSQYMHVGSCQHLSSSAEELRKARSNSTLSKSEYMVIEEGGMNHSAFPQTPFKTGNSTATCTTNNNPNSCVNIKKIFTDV
T1 sequence (P16389 whole entry): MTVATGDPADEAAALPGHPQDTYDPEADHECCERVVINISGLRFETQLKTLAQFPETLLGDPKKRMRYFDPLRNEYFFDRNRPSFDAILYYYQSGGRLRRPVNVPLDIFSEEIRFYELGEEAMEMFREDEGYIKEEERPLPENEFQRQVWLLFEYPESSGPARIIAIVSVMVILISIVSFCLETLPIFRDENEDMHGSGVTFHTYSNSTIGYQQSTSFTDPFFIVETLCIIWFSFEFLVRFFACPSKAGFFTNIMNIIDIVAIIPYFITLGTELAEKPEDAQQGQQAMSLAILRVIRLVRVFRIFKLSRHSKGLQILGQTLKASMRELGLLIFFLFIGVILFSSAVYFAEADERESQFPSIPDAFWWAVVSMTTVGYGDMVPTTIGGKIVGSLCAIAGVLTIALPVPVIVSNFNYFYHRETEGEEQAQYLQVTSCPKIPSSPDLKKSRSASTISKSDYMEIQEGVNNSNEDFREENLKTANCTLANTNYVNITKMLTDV
Chain of Rat whole blood (P15384 whole entry): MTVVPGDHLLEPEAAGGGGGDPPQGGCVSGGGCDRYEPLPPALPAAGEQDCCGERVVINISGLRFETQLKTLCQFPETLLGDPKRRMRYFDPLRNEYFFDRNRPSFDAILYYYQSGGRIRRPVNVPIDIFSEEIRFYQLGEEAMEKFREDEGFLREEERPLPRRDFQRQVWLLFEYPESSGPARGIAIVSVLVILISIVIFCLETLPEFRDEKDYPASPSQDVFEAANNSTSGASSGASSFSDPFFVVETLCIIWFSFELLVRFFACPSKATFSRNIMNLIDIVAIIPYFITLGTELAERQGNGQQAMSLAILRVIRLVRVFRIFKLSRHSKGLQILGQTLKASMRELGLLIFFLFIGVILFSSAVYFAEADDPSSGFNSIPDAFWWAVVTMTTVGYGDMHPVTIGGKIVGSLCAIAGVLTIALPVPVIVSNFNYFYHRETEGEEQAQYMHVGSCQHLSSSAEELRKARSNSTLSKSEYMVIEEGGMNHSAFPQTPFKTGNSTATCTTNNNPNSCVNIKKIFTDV
T3 sequence (P17658 whole entry): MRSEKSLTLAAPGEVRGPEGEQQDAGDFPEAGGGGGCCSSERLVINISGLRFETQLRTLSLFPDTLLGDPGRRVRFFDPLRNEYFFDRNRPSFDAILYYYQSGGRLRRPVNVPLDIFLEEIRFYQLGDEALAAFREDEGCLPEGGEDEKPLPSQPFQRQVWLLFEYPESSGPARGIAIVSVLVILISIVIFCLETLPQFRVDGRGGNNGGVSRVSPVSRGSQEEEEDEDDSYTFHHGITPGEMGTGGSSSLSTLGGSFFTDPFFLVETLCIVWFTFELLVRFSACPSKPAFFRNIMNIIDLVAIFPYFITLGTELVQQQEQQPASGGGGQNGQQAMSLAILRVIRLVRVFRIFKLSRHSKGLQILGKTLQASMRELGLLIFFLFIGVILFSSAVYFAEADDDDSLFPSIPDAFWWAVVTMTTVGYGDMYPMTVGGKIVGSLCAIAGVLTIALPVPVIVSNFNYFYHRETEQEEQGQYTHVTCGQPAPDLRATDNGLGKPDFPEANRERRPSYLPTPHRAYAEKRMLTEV
T2 sequence (Q09470 whole entry): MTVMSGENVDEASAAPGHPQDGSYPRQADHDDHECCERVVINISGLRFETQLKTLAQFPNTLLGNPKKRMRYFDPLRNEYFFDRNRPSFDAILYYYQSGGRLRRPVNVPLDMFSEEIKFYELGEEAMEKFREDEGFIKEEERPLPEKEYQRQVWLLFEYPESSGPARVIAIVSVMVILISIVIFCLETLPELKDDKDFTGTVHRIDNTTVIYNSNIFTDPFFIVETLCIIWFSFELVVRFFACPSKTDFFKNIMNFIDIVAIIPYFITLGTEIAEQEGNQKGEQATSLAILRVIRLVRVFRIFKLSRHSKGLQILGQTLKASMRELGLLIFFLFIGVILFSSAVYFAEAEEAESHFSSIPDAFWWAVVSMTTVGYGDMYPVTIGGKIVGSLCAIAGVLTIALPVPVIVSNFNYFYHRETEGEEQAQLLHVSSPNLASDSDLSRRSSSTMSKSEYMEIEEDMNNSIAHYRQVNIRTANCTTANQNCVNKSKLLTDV

Compound | IC50 [6] [nM] | also measured
CCCC[C@H](NC(=O)[C@@H]1CCCN1)C(=O)N[C@@H](CCC(=O)O)C(=O)N[C@@H](CCCC)C(=O)N[C@@H](CCCNC(=N)N)C(=O)N[C@H]1CSSC[C@@H]2NC(=O)[C@H](CCCCN)NC(=O)CNC(=O)[C@H](Cc3ccccc3)NC(=O)[C@H]([C@@H](C)CC)NC(=O)[C@H](CO)NC(=O)CNC(=O)[C@H]([C@@H](C)CC)NC(=O)[C@H](C)NC(=O)[C@H](C)NC(=O)[C@H](CC(C)C)NC(=O)[C@@H]3CSSC[C@@H](C(=O)N[C@@H](Cc4ccc(O)cc4)C(=O)N4CCC[C@H]4C(=O)N[C@@H](CCCNC(=N)N)C(=O)O)NC(=O)[C@H](CCCCN)NC(=O)[C@H](CSSC[C@H](NC(=O)[C@H](CCC(=O)O)NC(=O)[C@H](C(C)C)NC(=O)[C@H](CO)NC(=O)[C@H](C)NC(=O)[C@H](CO)NC1=O)C(=O)N[C@@H](C)C(=O)N[C@@H](CCC(N)=O)C(=O)N[C@@H](CCCCN)C(=O)N3)NC(=O)[C@H](CCCCN)NC(=O)[C@H](CCCCN)NC(=O)[C@H](CC(N)=O)NC(=O)[C@H](CCCC)NC2=O [compound 97] (H-P[Nle]E[Nle]RCSASVECAQKCLAAIGSIFGKC[Nle]NKKCKCYPR-OH; disulfide 6-27, 12-32, 16-34) | – | Selectivity ratio Kv1.2/Kv1.3 [1]: 5500; % inhibition of ear thickness (AUC of Δ ear thickness 0-48 hours) [2]: 48.9%; Selectivity ratio Kv1.1/Kv1.3 [3]: >5500; Selectivity ratio Kv1.6/Kv1.3 [4]: >5500; IC50 [5]: 1.2 nM
CCCC[C@H](NC(=O)[C@@H]1CCCN1)C(=O)N[C@@H](CCC(=O)O)C(=O)N[C@@H](CCCC)C(=O)N[C@@H](CCCNC(=N)N)C(=O)N[C@H]1CSSC[C@@H]2NC(=O)[C@H](CCCCN)NC(=O)CNC(=O)[C@H](Cc3ccccc3)NC(=O)[C@H]([C@@H](C)CC)NC(=O)[C@H](CO)NC(=O)CNC(=O)[C@H]([C@@H](C)CC)NC(=O)[C@H](C)NC(=O)[C@H](C)NC(=O)[C@H](CC(C)C)NC(=O)[C@@H]3CSSC[C@@H](C(=O)N[C@@H](Cc4ccc(O)cc4)C(=O)N4CCC[C@H]4C(=O)N[C@@H](CCCNC(=N)N)C(=O)O)NC(=O)[C@H](CCCCN)NC(=O)[C@H](CSSC[C@H](NC(=O)[C@H](CCC(=O)O)NC(=O)[C@H](C(C)C)NC(=O)[C@H](CN)NC(=O)[C@H](C)NC(=O)[C@H](CO)NC1=O)C(=O)N[C@@H](CCCCN)C(=O)N[C@@H](CCC(N)=O)C(=O)N[C@@H](CCCCN)C(=O)N3)NC(=O)[C@H](CCCCN)NC(=O)[C@H](CCCCN)NC(=O)[C@H](CC(N)=O)NC(=O)[C@H](CCCC)NC2=O [compound 8] (H-P[Nle]E[Nle]RCSA[Dap]VECKQKCLAAIGSIFGKC[Nle]NKKCKCYPR-OH; disulfide 6-27, 12-32, 16-34) | 0.26 | –
CCCC[C@H](NC(=O)[C@@H]1CCCN1)C(=O)N[C@@H](CCC(=O)O)C(=O)N[C@@H](CCCC)C(=O)N[C@@H](CCCNC(=N)N)C(=O)N[C@H]1CSSC[C@@H]2NC(=O)[C@H](CCCCN)NC(=O)CNC(=O)[C@H](Cc3ccccc3)NC(=O)[C@H]([C@@H](C)CC)NC(=O)[C@H](CO)NC(=O)CNC(=O)[C@H]([C@@H](C)CC)NC(=O)[C@H](C)NC(=O)[C@H](C)NC(=O)[C@H](CC(C)C)NC(=O)[C@@H]3CSSC[C@@H](C(=O)N[C@@H](Cc4ccc(O)cc4)C(=O)N4CCC[C@H]4C(=O)N[C@@H](CCCNC(=N)N)C(=O)O)NC(=O)[C@H](CCCCN)NC(=O)[C@H](CSSC[C@H](NC(=O)[C@H](CCC(=O)O)NC(=O)[C@H](C(C)C)NC(=O)[C@H](CO)NC(=O)[C@H](C)NC(=O)[C@H](Cc4ccc(O)cc4)NC1=O)C(=O)N[C@@H](CCCCN)C(=O)N[C@@H](CCC(N)=O)C(=O)N[C@@H](CCCCN)C(=O)N3)NC(=O)[C@H](CCCCN)NC(=O)[C@H](CCCCN)NC(=O)[C@H](CC(N)=O)NC(=O)[C@H](CCCC)NC2=O [compound 5] (H-P[Nle]E[Nle]RCYASVECKQKCLAAIGSIFGKC[Nle]NKKCKCYPR-OH; disulfide 6-27, 12-32, 16-34) | 0.18 | –
CCCC[C@H](NC(=O)[C@@H]1CCCN1)C(=O)N[C@@H](CCC(=O)O)C(=O)N[C@@H](CCCC)C(=O)N[C@@H](CCCNC(=N)N)C(=O)N[C@H]1CSSC[C@@H]2NC(=O)[C@H](CCCCN)NC(=O)CNC(=O)[C@H](Cc3ccccc3)NC(=O)[C@H]([C@@H](C)CC)NC(=O)[C@H](CO)NC(=O)CNC(=O)[C@H]([C@@H](C)CC)NC(=O)[C@H](C)NC(=O)[C@H](C)NC(=O)[C@H](CC(C)C)NC(=O)[C@@H]3CSSC[C@@H](C(=O)N[C@@H](Cc4ccc(O)cc4)C(=O)N4CCC[C@H]4C(=O)N[C@@H](CCCNC(=N)N)C(=O)O)NC(=O)[C@H](CCCCN)NC(=O)[C@H](CSSC[C@H](NC(=O)[C@H](CCC(=O)O)NC(=O)[C@H](C(C)C)NC(=O)[C@H](CO)NC(=O)[C@H](C)NC(=O)[C@H](CCN)NC1=O)C(=O)N[C@@H](C)C(=O)N[C@@H](CCC(N)=O)C(=O)N[C@@H](CO)C(=O)N3)NC(=O)[C@H](CCCCN)NC(=O)CNC(=O)[C@H](CC(N)=O)NC(=O)[C@H](CCCC)NC2=O [compound 9] (H-P[Nle]E[Nle]RC[Dab]ASVECAQSCLAAIGSIFGKC[Nle]NGKCKCYPR-OH; disulfide 6-27, 12-32, 16-34) | 4.6 | –
CCCC[C@H](NC(=O)[C@@H]1CCCN1)C(=O)N[C@@H](CCC(=O)O)C(=O)N[C@@H](CCCC)C(=O)N[C@@H](CCCNC(=N)N)C(=O)N[C@H]1CSSC[C@@H]2NC(=O)[C@H](CCCCN)NC(=O)CNC(=O)[C@H](Cc3ccccc3)NC(=O)[C@H]([C@@H](C)CC)NC(=O)[C@H](CO)NC(=O)CNC(=O)[C@H]([C@@H](C)CC)NC(=O)[C@H](C)NC(=O)[C@H](C)NC(=O)[C@H](CC(C)C)NC(=O)[C@@H]3CSSC[C@@H](C(=O)N[C@@H](Cc4ccc(O)cc4)C(=O)N4CCC[C@H]4C(=O)N[C@@H](CCCNC(=N)N)C(N)=O)NC(=O)[C@H](CCCCN)NC(=O)[C@H](CSSC[C@H](NC(=O)[C@H](CCC(=O)O)NC(=O)[C@H](C(C)C)NC(=O)[C@H](CO)NC(=O)[C@H](C)NC(=O)[C@H](CCCNC(=N)N)NC1=O)C(=O)N[C@@H](C)C(=O)N[C@@H](CCC(N)=O)C(=O)N[C@@H](CO)C(=O)N3)NC(=O)[C@H](CCCCN)NC(=O)CNC(=O)[C@H](CC(N)=O)NC(=O)[C@H](CCCC)NC2=O [compound 11] (H-P[Nle]E[Nle]RCRASVECAQSCLAAIGSIFGKC[Nle]NGKCKCYPR-NH2; disulfide 6-27, 12-32, 16-34) | 0.22 | –
CCCC[C@H](NC(=O)[C@@H]1CCCN1)C(=O)N[C@@H](CCC(=O)O)C(=O)N[C@@H](CCCC)C(=O)N[C@@H](CCCNC(=N)N)C(=O)N[C@H]1CSSC[C@@H]2NC(=O)[C@H](CCCCN)NC(=O)CNC(=O)[C@H](Cc3ccccc3)NC(=O)[C@H]([C@@H](C)CC)NC(=O)[C@H](CO)NC(=O)CNC(=O)[C@H]([C@@H](C)CC)NC(=O)[C@H](C)NC(=O)[C@H](C)NC(=O)[C@H](CC(C)C)NC(=O)[C@@H]3CSSC[C@@H](C(=O)N[C@@H](Cc4ccc(O)cc4)C(=O)N4CCC[C@H]4C(=O)N[C@@H](CCCNC(=N)N)C(=O)O)NC(=O)[C@H](CCCCN)NC(=O)[C@H](CSSC[C@H](NC(=O)[C@H](CCC(=O)O)NC(=O)[C@H](C(C)C)NC(=O)[C@H](CO)NC(=O)[C@H](C)NC(=O)[C@H](CN)NC1=O)C(=O)N[C@@H](CCCCN)C(=O)N[C@@H](CCC(N)=O)C(=O)N[C@@H](CCCCN)C(=O)N3)NC(=O)[C@H](CCCCN)NC(=O)[C@H](CCCCN)NC(=O)[C@H](CC(N)=O)NC(=O)[C@H](CCCC)NC2=O [compound 7] (H-P[Nle]E[Nle]RC[Dap]ASVECKQKCLAAIGSIFGKC[Nle]NKKCKCYPR-OH; disulfide 6-27, 12-32, 16-34) | 0.28 | –
CCCC[C@H](NC(=O)[C@@H]1CCCN1)C(=O)N[C@@H](CCC(=O)O)C(=O)N[C@@H](CCCC)C(=O)N[C@@H](CCCNC(=N)N)C(=O)N[C@H]1CSSC[C@@H]2NC(=O)[C@H](CCCCN)NC(=O)CNC(=O)[C@H](Cc3ccccc3)NC(=O)[C@H]([C@@H](C)CC)NC(=O)[C@H](CO)NC(=O)CNC(=O)[C@H]([C@@H](C)CC)NC(=O)[C@H](C)NC(=O)[C@H](C)NC(=O)[C@H](CC(C)C)NC(=O)[C@@H]3CSSC[C@@H](C(=O)N[C@@H](Cc4ccc(O)cc4)C(=O)N4CCC[C@H]4C(=O)N[C@@H](CCCNC(=N)N)C(=O)O)NC(=O)[C@H](CCCCN)NC(=O)[C@H](CSSC[C@H](NC(=O)[C@H](CCC(=O)O)NC(=O)[C@H](C(C)C)NC(=O)[C@H](CCCN)NC(=O)[C@H](C)NC(=O)[C@H](CO)NC1=O)C(=O)N[C@@H](CCCCN)C(=O)N[C@@H](CCC(N)=O)C(=O)N[C@@H](CCCCN)C(=O)N3)NC(=O)[C@H](CCCCN)NC(=O)[C@H](CCCCN)NC(=O)[C@H](CC(N)=O)NC(=O)[C@H](CCCC)NC2=O [compound 6] (H-P[Nle]E[Nle]RCSA[Orn]VECKQKCLAAIGSIFGKC[Nle]NKKCKCYPR-OH; disulfide 6-27, 12-32, 16-34) | 33 | –
